Laboratory results reported in US20250327032A1, “AGENT FOR AVOIDING IMMUNE RESPONSE OF TRANSGENIC CELLS” (HYPERION DRUG DISCOVERY CO., LTD., priority 2021, published 2025).

Assays:
[1] = tested on: TNF-α; test: TNF-α expression level (qPCR) after introduction of GFP-tagged CAR-T plasmid; type: cell-based, human; conditions: Jurkat E6.1; JSH-23 0.1 μM; compared to CAR-T plasmid introduced without JSH-23
Method: Human leukemia T cells (Jurkat E6.1) were seeded in a 6-well plate to be about 10,000 cells/cm^2. As a culture solution, RPMI1640 medium comprising 10% bovine serum was used. To this, 0.1 μM of JSH-23 was added, or for comparison, 0.1% (v/v) DMSO instead of JSH-23 was added and used.
A lipofection solution was prepared by adding Lipofectamine 2000 and GFP-tagged CAR-T plasmid to OptiMEM. The amount of plasmid was prepared to be 1 pg/cell. The prepared lipofection solution was mixed well according to the manufacturer's recommended protocol and allowed to stand at room temperature for about 15 minutes.
Next, the lipofection solution was added to the plate seeded with human leukemia T cells, and cultured in a CO2 incubator at 37° C. for about 1 day (18 hours). After culturing, all the culture solution comprising the lipofection solution was removed and replaced with a new culture solution having the same composition as before the addition of the lipofection solution. […]
cDNA was synthesized from the purified RNA using SuperScript™ III Reverse Transcriptase according to the manufacturer's protocol. qPCR was performed using the synthesized cDNA and PCR primers as well as PowerTrack™ SYBR Green Master Mix. The measured Ct value of TNF-α was normalized with the Ct value of β-actin, a housekeeping gene.

[2] = tested on: IFN-α; test: IFN-α expression level (qPCR) after introduction of GFP-tagged CAR-T plasmid; type: cell-based, human; conditions: Jurkat E6.1; JSH-23 0.1 μM; compared to CAR-T plasmid introduced without JSH-23
[3] = tested on: human myoblasts; test: Introduction of GFP viral vector (polybrene method), yield of GFP-positive cells; type: cell-based; conditions: JSH-23 0.1 μM; GFP viral vector MOI 10, polybrene 5 μg/mL
Method: Human mesenchymal stem cells were seeded in a 6-well plate to be about 2,000 cells/cm^2. Human myoblasts were seeded in another 6-well plate to be about 2,000 cells/cm^2. As a culture solution, a basal medium for each cell supplemented with JSH-23 was used. JSH-23 was added at 1 μM to the culture solution used for human mesenchymal stem cells, and at 0.1 μM to the culture solution used for human myoblasts. As a control, a basal medium, i.e., αMEM (+10% serum) for human mesenchymal stem cells and MCDB131 (+10% serum) for human myoblasts, to which 0.1% (v/v) DMSO instead of JSH-23 was added was used as a culture solution.
A mixed solution was prepared by mixing GFP viral vector and a polybrene solution. […]
Next, the above mixed solution was added to the plate seeded with human mesenchymal stem cells or human myoblasts, and cultured in a CO2 incubator at 37° C. for 24 hours.
Four days after the addition of the virus-free culture solution, the cells were detached with a cell detachment solution and centrifuged at 600×g for 5 minutes using a centrifuge, to collect the cells. The collected cells were counted using a hemocytometer. Furthermore, the GFP-positive percentage of the collected cells was measured using a flow cytometer. The yield of the number of GFP-positive cells was calculated from the number of cells counted and the GFP-positive percentage. […]

[4] = tested on: human mesenchymal stem cells; test: Introduction of GFP mRNA with NFκB inhibitors other than nuclear translocation inhibitors (Example 12), yield of GFP-positive cells; type: cell-based; conditions: JSH-23 1 μM; GFP mRNA 10 pg/cell
Method: Improvement in the yield of transgenic cells when using an NFκB inhibitor other than the NFκB nuclear translocation inhibitor of the present invention was investigated. As the NFκB inhibitors, BAY11 (IKK inhibitor), dexamethasone (IκB degradation inhibitor), and 6-amino-4-(4-phenoxyphenethylamino)quinazoline (p65 acetylation inhibitor) were used to perform introduction of genes. For comparison, introduction of gene was performed under the same conditions using JSH-23, an NFκB nuclear translocation inhibitor, instead of the above-mentioned NFκB inhibitors. The specific procedure is as follows.
Human mesenchymal stem cells were seeded in a 6-well plate to be about 10,000 cells/cm^2. […]
Twenty-four hours after the final introduction of genes, the cells were detached with a cell detachment solution, centrifuged at 600×g for 5 minutes using a centrifuge, to collect the cells. The collected cells were counted using a hemocytometer. Furthermore, the GFP-positive percentage of the collected cells was measured using a flow cytometer. The yield of the number of GFP-positive cells was calculated from the number of cells counted and the GFP-positive percentage.

## Cc1ccc(NCCCc2ccccc2)c(N)c1 [JSH-23]
[1]
  increase in the expression level of TNF-α: reduced
[2]
  increase in the expression level of IFN-α: reduced
[3]
  number of GFP-positive cells relative to control: increased
[4]
  number of GFP-positive (transgenic) cells relative to control (set to 1): ≥ 7 times
